Measured values: US10144755B2, “Substituted nucleosides, nucleotides and analogs thereof” (ALIOS BIOPHARMA, INC., priority 2012, dated 2018)

Biological target: NS5B570-Con1 (Delta-21) (Hepatitis C virus genotype 1b, UniProt Q9WMX2)
Assay: biochemical
Assay type: biochemical, HCV (Con-1 strain)
Conditions: 50 nM NS5B570-Con1, cIRES RNA template, 2 h at 37° C., mean of several independent experiments

Work on `C#C[C@]1(F)[C@H](n2cnc3c(=O)[nH]c(N)nc32)O[C@](F)(COP(=O)(O)OP(=O)(O)OP(=O)(O)O)[C@H]1O` [Compound 44] yielded an IC50 of under 1000 nM.

Same assay, conditions: 50 nM NS5B570-Con1, cIRES RNA template, 2 h at 37° C., mean of several independent experiments; read-out: IC50

`C[C@]1(Cl)[C@H](n2ccc(=O)[nH]c2=O)O[C@](F)(COP(=O)(O)OP(=O)(O)OP(=O)(O)O)[C@H]1O` [Compound 46] showed an IC50 of under 1000 nM.

Same assay, conditions: IC50, 50 nM NS5B570-Con1, cIRES RNA template, 2 h at 37° C., mean of several independent experiments

First: O=c1ccn([C@@H]2O[C@](F)(COP(=O)(O)OP(=O)(O)OP(=O)(O)O)[C@@H](O)[C@]2(O)CF)c(=O)[nH]1 [Compound 76]
Second: C[C@]1(O)[C@H](n2ccc(=O)[nH]c2=O)O[C@](F)(COP(O)(=S)OP(=O)(O)OP(=O)(O)O)[C@H]1O (single isomer, unassigned) [Compound 7b]
The IC50 of the first is lower: under 1000 nM for the first, 1000 to 10000 nM for the second.

`C#C[C@]1(O)[C@H](n2cnc3c(=O)[nH]c(N)nc32)O[C@](F)(COP(=O)(O)OP(=O)(O)OP(=O)(O)O)[C@H]1O` [Compound 9] and `C#C[C@]1(F)[C@H](n2cnc3c(=O)[nH]c(N)nc32)O[C@](F)(COP(=O)(O)OP(=O)(O)OP(=O)(O)O)[C@H]1O` [Compound 69] cannot be ordered by IC50: under 1000 nM for the first, under 1000 nM for the second.

`C[C@]1(O)[C@H](n2ccc(=O)[nH]c2=O)O[C@](F)(COP(O)(=S)OP(=O)(O)OP(=O)(O)O)[C@H]1O` (single isomer, unassigned) [Compound 7a] was tested, and the IC50 was under 1000 nM.

Tested on: self-replicating, subgenomic HCV replicon in Huh-7 cells
Assay: HCV replicon assay
Assay type: cell-based
Conditions: Hepatitis C virus, Huh-7, 72 h

`C#C[C@]1(O)[C@H](n2cnc3c(OCC)nc(N)nc32)O[C@](F)(CO[P@@](=O)(N[C@@H](C)C(=O)OC2CCCCC2)Oc2ccccc2)[C@H]1O` [Compound 35] and `C#C[C@]1(O)[C@H](n2cnc3c(OCC)nc(N)nc32)O[C@](F)(CO[P@](=O)(N[C@@H](C)C(=O)OC2CCCCC2)Oc2ccccc2)[C@H]1O` [Compound 34] cannot be ordered by EC50: under 1000 nM for the first, under 1000 nM for the second.

`CCOc1nc(N)nc2c1ncn2[C@@H]1O[C@](F)(COP(=O)(N[C@@H](C)C(=O)OCC(C)C)Oc2cccc3ccccc23)[C@@H](O)[C@@]1(C)F` (some centres unmarked) [Compound 84] and `CCOc1nc(N)nc2c1ncn2[C@@H]1O[C@](F)(COP(=O)(N[C@@H](C)C(=O)OC(C)C)Oc2cccc3ccccc23)[C@@H](O)[C@@]1(C)F` (some centres unmarked) [Compound 83] cannot be ordered by EC50: under 1000 nM for the first, under 1000 nM for the second.

`C[C@H](NP(=O)(OC[C@@]1(F)O[C@@H](n2ccc(=O)[nH]c2=O)[C@](C)(O)C1O)Oc1ccccc1)C(=O)OCC(C)(C)C` (some centres unmarked) [Compound 5] and `CC(C)OC(=O)[C@H](C)NP(=O)(OC[C@@]1(F)O[C@@H](n2ccc(=O)[nH]c2=O)[C@](C)(F)[C@@H]1O)Oc1ccccc1` (some centres unmarked) [Compound 31] cannot be ordered by EC50: under 1000 nM for the first, under 1000 nM for the second.

`CCOc1nc(N)nc2c1ncn2[C@@H]1O[C@](F)(CO[P@@](=O)(N[C@@H](C)C(=O)OC2CCCCC2)Oc2ccccc2)[C@@H](O)[C@@]1(C)F` [Compound 33] and `CCOc1nc(N)nc2c1ncn2[C@@H]1O[C@](F)(CO[P@](=O)(N[C@@H](C)C(=O)OC2CCCCC2)Oc2ccccc2)[C@@H](O)[C@@]1(C)F` [Compound 32] cannot be ordered by EC50: under 1000 nM for the first, under 1000 nM for the second.

First: CC(C)(C)C(=O)SCCOCCOP(=O)(OCCOCCSC(=O)C(C)(C)C)OC[C@@]1(F)O[C@@H](n2ccc(=O)[nH]c2=O)[C@](C)(O)[C@@H]1O [Compound 59]
Second: CC(C)(C)C(=O)SCCOP(=O)(OCCSC(=O)C(C)(C)C)OC[C@@]1(F)O[C@@H](n2ccc(=O)[nH]c2=O)[C@](C)(O)[C@@H]1O [Compound 58]
The EC50 of the first is higher: 10000 to 100000 nM for the first, under 1000 nM for the second. The second is the more potent here.

`CCOc1nc(N)nc2c1ncn2[C@@H]1O[C@](F)(COP(=O)(N[C@@H](C)C(=O)OCC(C)C)Oc2ccccc2)[C@@H](O)[C@@]1(C)F` (some centres unmarked) [Compound 86] and `CCOc1nc(N)nc2c1ncn2[C@@H]1O[C@](F)(COP(=O)(N[C@@H](C)C(=O)OC(C)C)Oc2ccccc2)[C@@H](O)[C@@]1(C)F` (some centres unmarked) [Compound 85] cannot be ordered by EC50: under 1000 nM for the first, under 1000 nM for the second.

First: C#C[C@]1(F)[C@H](n2cnc3c(OCC)nc(N)nc32)O[C@](F)(COP(=O)(N[C@@H](C)C(=O)OC2CCCCC2)Oc2ccccc2)[C@H]1O (single isomer, unassigned) [Compound 41]
Second: C[C@H](NP(=O)(OC[C@@]1(F)O[C@@H](n2ccc(=O)[nH]c2=O)[C@](C)(F)[C@@H]1O)Oc1ccccc1)C(=O)OC1CCCCC1 (some centres unmarked) [Compound 30]
The EC50 of the first is higher: 1000 to 10000 nM for the first, under 1000 nM for the second. The second is the more potent here.

`C=C[C@]1(O)[C@H](n2ccc(=O)[nH]c2=O)O[C@](F)(CO[P@@](=O)(N[C@@H](C)C(=O)OC(C)C)Oc2ccccc2)[C@H]1O` [Compound 77] and `C#C[C@]1(F)[C@H](n2cnc3c(OCC)nc(N)nc32)O[C@](F)(COP(=O)(N[C@@H](C)C(=O)OC2CCCCC2)Oc2ccccc2)[C@H]1O` (some centres unmarked) [Compound 40] fall in the same range of EC50: 1000 to 10000 nM for the first, 1000 to 10000 nM for the second.

Same assay, conditions: Hepatitis C virus; Huh-7 HCV replicon cells, luciferase reporter, 72 h; read-out: EC50

`CCOc1nc(N)nc2c1ncn2[C@@H]1O[C@]2(F)CO[P@](=O)(OC(C)C)O[C@H]2[C@@]1(C)O` (single isomer, unassigned) [Compound 36] and `CCOc1nc(N)nc2c1ncn2[C@@H]1O[C@]2(F)CO[P@@](=O)(OC(C)C)O[C@H]2[C@@]1(C)O` [Compound 37] cannot be ordered by EC50: under 1000 nM for the first, under 1000 nM for the second.

`CCOc1nc(N)nc2c1ncn2[C@@H]1O[C@](F)(COP(=O)(OCOC(=O)OC(C)C)OCOC(=O)OC(C)C)[C@@H](O)[C@@]1(C)O` [Compound 52] and `CCOc1nc(N)nc2c1ncn2[C@@H]1O[C@](F)(COP(=O)(OCOC(=O)OC(C)C)OCOC(=O)OC(C)C)[C@@H](O)[C@@]1(C)F` [Compound 53] cannot be ordered by EC50: under 1000 nM for the first, under 1000 nM for the second.

First: CCOc1nc(N)nc2c1ncn2[C@@H]1O[C@]2(F)CO[P@@](=O)(OC(C)C)O[C@H]2[C@@]1(C)F [Compound 43]
Second: C[C@]1(F)[C@H](n2cnc3c(=O)[nH]c(N)nc32)O[C@](F)(CO)[C@H]1O [Compound 29]
The EC50 of the first is lower: under 1000 nM for the first, 10000 to 100000 nM for the second.

`CC(C)(C)C(=O)OCOP(=O)(OCOC(=O)C(C)(C)C)OC[C@@]1(F)O[C@@H](n2ccc(=O)[nH]c2=O)[C@](C)(O)[C@@H]1O` [Compound 55] and `CC(C)OC(=O)OCOP(=O)(OCOC(=O)OC(C)C)OC[C@@]1(F)O[C@@H](n2ccc(=O)[nH]c2=O)[C@](C)(O)[C@@H]1O` [Compound 14] cannot be ordered by EC50: under 1000 nM for the first, under 1000 nM for the second.

First: C[C@]1(F)[C@H](n2ccc(N)nc2=O)O[C@](F)(CO)[C@H]1O [Compound 27]
Second: C[C@]1(F)[C@H](n2ccc(N)nc2=O)O[C@](F)(COP(=O)(O)OP(=O)(O)OP(=O)(O)O)[C@H]1O [Compound 28]
The EC50 of the first is higher: 10000 to 100000 nM for the first, under 1000 nM for the second.

First: CC(C)OC(=O)OCOP(=O)(OCOC(=O)OC(C)C)OC[C@@]1(F)O[C@@H](n2cnc3c(=O)[nH]c(N)nc32)[C@](C)(O)[C@@H]1O [Compound 49]
Second: C#C[C@]1(O)[C@H](n2ccc(=O)[nH]c2=O)O[C@](F)(COP(=O)(OCOC(=O)OC(C)C)OCOC(=O)OC(C)C)[C@H]1O [Compound 51]
The EC50 of the first is lower: under 1000 nM for the first, 1000 to 10000 nM for the second.

Same assay, conditions: read-out: EC50

For `CCOc1nc(N)nc2c1ncn2[C@@H]1O[C@]2(F)CO[P@](=O)(OC(C)C)O[C@H]2[C@@]1(C)F` [Compound 42], the EC50 was under 1000 nM.

Biological target: human mitochondrial RNA polymerase (Homo sapiens, UniProt O00411)
Assay: DdRp assay: incorporation of nucleotides by human mitochondrial RNA polymerase (HMRP)
Conditions: single turnover, 100 μM NTP, 30° C., 1 minute; product band on gel

human mitochondrial RNA polymerase, sequence (O00411 42-1230): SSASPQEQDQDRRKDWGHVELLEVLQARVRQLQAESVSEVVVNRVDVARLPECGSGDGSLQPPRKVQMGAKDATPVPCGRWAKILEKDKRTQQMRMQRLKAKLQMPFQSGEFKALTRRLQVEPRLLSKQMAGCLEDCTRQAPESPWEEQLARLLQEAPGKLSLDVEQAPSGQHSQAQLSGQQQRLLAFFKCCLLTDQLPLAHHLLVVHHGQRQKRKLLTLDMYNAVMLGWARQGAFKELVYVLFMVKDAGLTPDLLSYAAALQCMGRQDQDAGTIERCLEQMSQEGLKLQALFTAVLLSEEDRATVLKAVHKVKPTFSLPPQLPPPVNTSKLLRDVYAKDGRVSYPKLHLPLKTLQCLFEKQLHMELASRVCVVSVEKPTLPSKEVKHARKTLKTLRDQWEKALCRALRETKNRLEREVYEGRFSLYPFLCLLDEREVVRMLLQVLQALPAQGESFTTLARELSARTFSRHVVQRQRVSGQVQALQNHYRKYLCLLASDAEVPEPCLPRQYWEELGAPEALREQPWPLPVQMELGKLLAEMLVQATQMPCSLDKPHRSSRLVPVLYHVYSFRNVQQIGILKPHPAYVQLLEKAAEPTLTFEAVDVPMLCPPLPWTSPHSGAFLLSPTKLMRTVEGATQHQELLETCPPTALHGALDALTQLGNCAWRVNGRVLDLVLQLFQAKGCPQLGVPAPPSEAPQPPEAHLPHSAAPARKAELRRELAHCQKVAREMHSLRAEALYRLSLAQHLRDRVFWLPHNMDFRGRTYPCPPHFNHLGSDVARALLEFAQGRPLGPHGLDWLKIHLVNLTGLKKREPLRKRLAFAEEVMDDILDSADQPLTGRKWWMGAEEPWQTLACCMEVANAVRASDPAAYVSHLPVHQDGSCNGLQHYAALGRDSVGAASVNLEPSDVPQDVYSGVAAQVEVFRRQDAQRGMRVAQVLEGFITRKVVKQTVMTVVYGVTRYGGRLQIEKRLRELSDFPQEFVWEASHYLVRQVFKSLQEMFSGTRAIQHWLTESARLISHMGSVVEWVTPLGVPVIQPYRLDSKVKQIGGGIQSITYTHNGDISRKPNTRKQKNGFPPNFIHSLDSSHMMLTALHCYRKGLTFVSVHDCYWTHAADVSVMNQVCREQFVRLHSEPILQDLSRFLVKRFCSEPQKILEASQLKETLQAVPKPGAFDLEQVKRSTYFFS

In the case of `Nc1ncnc2c1ncn2[C@@H]1O[C@H](COP(=O)(O)OP(=O)(O)OP(=O)(O)O)[C@@H](O)[C@H]1O` [ATP], the “incorporation by HMRP, template for GTP analogs (FIG. 11)” value is reported as “poor substrate for incorporation”.

`C[C@@]1(F)[C@H](O)[C@@H](COP(=O)(O)OP(=O)(O)OP(=O)(O)O)O[C@H]1n1ccc(=O)[nH]c1=O` [2′-Me-2′-F-UTP] was tested, and the “incorporation by HMRP, template for UTP analogs (FIG. 10)” value was “not efficient substrates for incorporation by HMRP”.

Tested on: mitochondrial protein synthesis (COX I / SDH A) in HepG2 cells
Assay: not given
Conditions: not given

For `COc1nc(N)nc2c1ncn2[C@@H]1O[C@H](COP(=O)(N[C@@H](C)C(=O)OCC(C)(C)C)Oc2cccc3ccccc23)[C@@H](O)[C@@]1(C)O` (some centres unmarked) [INX-08189/BMS-986094], the “inhibition of mitochondrial protein synthesis (COX I/SDH A ratio)” value (from here on “inhibition … (COX I/SDH A ratio)”) was “strongly inhibit mitochondrial protein synthesis”.
For `Nc1ccn([C@H]2CC[C@@H](CO)O2)c(=O)n1` [ddC], the “inhibition … (COX I/SDH A ratio)” value was “strongly inhibit mitochondrial protein synthesis”.
`Cc1cn([C@H]2C=C[C@@H](CO)O2)c(=O)[nH]c1=O` [d4T] was tested, and the “inhibition … (COX I/SDH A ratio)” value was “not to inhibit mitochondrial protein synthesis at concentrations up to 100 μM”.
